Test results taken from patent publication US5326882A, “Chemiluminescent 3-(substituted Adamant-2'-Ylidene) 1,2-dioxetanes” (Tropix, Inc., priority 1992, dated 1994).

Key:
Assay type in all cases: biochemical
alkaline phosphatase [1] = molecular target: T1, alkaline phosphatase (Bos taurus, UniProt P19111); assay: Half-time to plateau at low alkaline phosphatase concentration (Example XLI); conditions: 0.4 mM dioxetane at pH 10.0; 31.5° C.; 2.53 × 10^-13 M alkaline phosphatase
alkaline phosphatase [2] = molecular target: T1, alkaline phosphatase; assay: Alkaline phosphatase detection limits, LabSystems Luminoskan (Example XXV)
How it was run: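 Serial enzyme dilutions incubated in duplicate at room temperature with 0.4 mM 1,2-dioxetane in 0.1 M diethanolamine, 1 mM MgCl2, pH 10.0, plus 1 mg/ml polymeric enhancer. Chemiluminescence integrated over 5 s after 5 or 20 min; detection limit taken as enzyme concentration giving twice background.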

alkaline phosphatase [3] = molecular target: T1, alkaline phosphatase; assay: Chemiluminescent signal and signal:background with enhancer polymers (Example XVII)
How it was run: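 Bovine alkaline phosphatase was added to a final 2.83×10^-13 M in 1,2-dioxetane substrate solution (0.4 mM before enzyme addition). Background luminescence was read before enzyme addition and chemiluminescence at 5 and 20 min, giving signal and signal:background ratio.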

T1 sequence (P19111 20-506 limits assumed): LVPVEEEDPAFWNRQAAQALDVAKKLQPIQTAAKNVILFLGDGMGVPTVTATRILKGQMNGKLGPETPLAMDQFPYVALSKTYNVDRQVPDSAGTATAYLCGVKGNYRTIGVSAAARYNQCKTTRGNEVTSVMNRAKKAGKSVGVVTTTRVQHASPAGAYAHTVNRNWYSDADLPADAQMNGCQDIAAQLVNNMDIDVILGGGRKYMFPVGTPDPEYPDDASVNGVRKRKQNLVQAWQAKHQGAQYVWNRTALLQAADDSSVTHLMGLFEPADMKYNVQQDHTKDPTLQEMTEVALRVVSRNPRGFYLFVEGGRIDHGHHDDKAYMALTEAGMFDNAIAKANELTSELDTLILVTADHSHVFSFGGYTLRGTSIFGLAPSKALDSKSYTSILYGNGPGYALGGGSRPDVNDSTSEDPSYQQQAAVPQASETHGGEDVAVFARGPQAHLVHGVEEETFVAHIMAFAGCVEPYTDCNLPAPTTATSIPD

SMILES: COC1(c2cccc(OP(=O)(O)O)c2)OOC12C1CC3CC(C1)CC2C3 (centres unmarked) [AMPPD, 3-(4-methoxyspiro[1,2-dioxetane-3,2'-triyclo[3.3.1.1^3,7]decan]-4-yl)phenyl phosphate, reference compound]
- HALF-TIME TO PLATEAU (min.) AL LOW ALK PHOS CONCENTRATION (alkaline phosphatase [1]): 1.97 min
- Alkaline phosphatase detection limit (at 2× background) (alkaline phosphatase [2]; SAPPHIRE II, 5 MINUTE INCUBATION): 0.0025 pM
- Alkaline phosphatase detection limit (at 2× background) (alkaline phosphatase [2]; SAPPHIRE II, 20 MINUTE INCUBATION): 0.0011 pM
- Alkaline phosphatase detection limit (at 2× background) (alkaline phosphatase [2]; SAPPHIRE, 5 MINUTE INCUBATION): 0.0038 pM
- Alkaline phosphatase detection limit (at 2× background) (alkaline phosphatase [2]; SAPPHIRE, 20 MINUTE INCUBATION): 0.0014 pM
- S/N (alkaline phosphatase [3]; polymer BAEDM, 5 min): 107.6
- SIGNAL (alkaline phosphatase [3]; polymer BAEDM, 5 min): 9275.3
- S/N (alkaline phosphatase [3]; polymer BAEDM, 20 min): 306.5
- SIGNAL (alkaline phosphatase [3]; polymer BAEDM, 20 min): 26529.1
- S/N (alkaline phosphatase [3]; polymer BAEDM, time 0): 1.0
- SIGNAL (alkaline phosphatase [3]; polymer BAEDM, time 0 (background, before enzyme)): 217.3
- S/N (alkaline phosphatase [3]; polymer BZ, 5 min): 18.3
- SIGNAL (alkaline phosphatase [3]; polymer BZ, 5 min): 2738.0
- S/N (alkaline phosphatase [3]; polymer BZ, 20 min): 30.9
- SIGNAL (alkaline phosphatase [3]; polymer BZ, 20 min): 4611.5
- S/N (alkaline phosphatase [3]; polymer BZ, time 0): 1.0
- SIGNAL (alkaline phosphatase [3]; polymer BZ, time 0 (background, before enzyme)): 149.4
- S/N (alkaline phosphatase [3]; polymer DAA TMQ, 5 min): 46.4
- SIGNAL (alkaline phosphatase [3]; polymer DAA TMQ, 5 min): 8354.4
- S/N (alkaline phosphatase [3]; polymer DAA TMQ, 20 min): 83.1
- SIGNAL (alkaline phosphatase [3]; polymer DAA TMQ, 20 min): 14957.3
- S/N (alkaline phosphatase [3]; polymer DAA TMQ, time 0): 1.0
- SIGNAL (alkaline phosphatase [3]; polymer DAA TMQ, time 0 (background, before enzyme)): 180.0
- S/N (alkaline phosphatase [3]; polymer DME(OH)B, 5 min): 21.4
- SIGNAL (alkaline phosphatase [3]; polymer DME(OH)B, 5 min): 3462.3
- S/N (alkaline phosphatase [3]; polymer DME(OH)B, 20 min): 52.9
- SIGNAL (alkaline phosphatase [3]; polymer DME(OH)B, 20 min): 8540.9
- S/N (alkaline phosphatase [3]; polymer DME(OH)B, time 0): 1.0
- SIGNAL (alkaline phosphatase [3]; polymer DME(OH)B, time 0 (background, before enzyme)): 161.6
- S/N (alkaline phosphatase [3]; polymer DMEB, 5 min): 52.6
- SIGNAL (alkaline phosphatase [3]; polymer DMEB, 5 min): 9401.5
- S/N (alkaline phosphatase [3]; polymer DMEB, 20 min): 114.4
- SIGNAL (alkaline phosphatase [3]; polymer DMEB, 20 min): 20434.9
- S/N (alkaline phosphatase [3]; polymer DMEB, time 0): 1.0
- SIGNAL (alkaline phosphatase [3]; polymer DMEB, time 0 (background, before enzyme)): 178.6
- S/N (alkaline phosphatase [3]; polymer DMQ TEQ, 5 min): 133.9
- SIGNAL (alkaline phosphatase [3]; polymer DMQ TEQ, 5 min): 32820.5
- S/N (alkaline phosphatase [3]; polymer DMQ TEQ, 20 min): 322.1
- SIGNAL (alkaline phosphatase [3]; polymer DMQ TEQ, 20 min): 78977.4
- S/N (alkaline phosphatase [3]; polymer DMQ TEQ, time 0): 1.0
- SIGNAL (alkaline phosphatase [3]; polymer DMQ TEQ, time 0 (background, before enzyme)): 245.2
- SIGNAL (alkaline phosphatase [3]; polymer EMERALD (sapphire and fluorescein), time 0 (background, before enzyme)): 2902.1
- S/N (alkaline phosphatase [3]; polymer EMERALD, 5 min): 109.4
- SIGNAL (alkaline phosphatase [3]; polymer EMERALD, 5 min): 317571.6
- S/N (alkaline phosphatase [3]; polymer EMERALD, 20 min): 282.1
- SIGNAL (alkaline phosphatase [3]; polymer EMERALD, 20 min): 818775.8
- S/N (alkaline phosphatase [3]; polymer EMERALD, time 0): 1.0
- S/N (alkaline phosphatase [3]; polymer MPB, 5 min): 94.3
- SIGNAL (alkaline phosphatase [3]; polymer MPB, 5 min): 19971.8
- S/N (alkaline phosphatase [3]; polymer MPB, 20 min): 196.9
- SIGNAL (alkaline phosphatase [3]; polymer MPB, 20 min): 41701.8
- S/N (alkaline phosphatase [3]; polymer MPB, time 0): 1.0
- SIGNAL (alkaline phosphatase [3]; polymer MPB, time 0 (background, before enzyme)): 211.8
- S/N (alkaline phosphatase [3]; polymer NONE, 5 min): 21.5
- SIGNAL (alkaline phosphatase [3]; polymer NONE, 5 min, enzyme 2.83×10^-13 M): 3706.0
- S/N (alkaline phosphatase [3]; polymer NONE, 20 min): 34.4
- SIGNAL (alkaline phosphatase [3]; polymer NONE, 20 min, enzyme 2.83×10^-13 M): 5944.8
- S/N (alkaline phosphatase [3]; polymer NONE, time 0): 1.0
- SIGNAL (alkaline phosphatase [3]; polymer NONE, time 0 (background, before enzyme)): 172.6
- S/N (alkaline phosphatase [3]; polymer S/TMQ(1:2), 5 min): 20.2
- SIGNAL (alkaline phosphatase [3]; polymer S/TMQ(1:2), 5 min): 3437.0
- S/N (alkaline phosphatase [3]; polymer S/TMQ(1:2), 20 min): 58.9
- SIGNAL (alkaline phosphatase [3]; polymer S/TMQ(1:2), 20 min): 9994.7
- S/N (alkaline phosphatase [3]; polymer S/TMQ(1:2), time 0): 1.0
- SIGNAL (alkaline phosphatase [3]; polymer S/TMQ(1:2), time 0 (background, before enzyme)): 169.8
- S/N (alkaline phosphatase [3]; polymer S/TMQ(1:4), 5 min): 35.7
- SIGNAL (alkaline phosphatase [3]; polymer S/TMQ(1:4), 5 min): 5931.5
- S/N (alkaline phosphatase [3]; polymer S/TMQ(1:4), 20 min): 95.4
- SIGNAL (alkaline phosphatase [3]; polymer S/TMQ(1:4), 20 min): 15866.3
- S/N (alkaline phosphatase [3]; polymer S/TMQ(1:4), time 0): 1.0
- SIGNAL (alkaline phosphatase [3]; polymer S/TMQ(1:4), time 0 (background, before enzyme)): 116.3
- SIGNAL (alkaline phosphatase [3]; polymer SAPPHIRE (BDMQ), time 0 (background, before enzyme)): 241.4
- S/N (alkaline phosphatase [3]; polymer SAPPHIRE, 5 min): 159.3
- SIGNAL (alkaline phosphatase [3]; polymer SAPPHIRE, 5 min): 38457.8
- S/N (alkaline phosphatase [3]; polymer SAPPHIRE, 20 min): 353.6
- SIGNAL (alkaline phosphatase [3]; polymer SAPPHIRE, 20 min): 85359.8
- S/N (alkaline phosphatase [3]; polymer SAPPHIRE, time 0): 1.0
- SIGNAL (alkaline phosphatase [3]; polymer TBQ-FLUOR (TBQ and fluorescein), time 0 (background, before enzyme)): 4961.2
- S/N (alkaline phosphatase [3]; polymer TBQ-FLUOR, 5 min): 113.9
- SIGNAL (alkaline phosphatase [3]; polymer TBQ-FLUOR, 5 min): 57271.6
- S/N (alkaline phosphatase [3]; polymer TBQ-FLUOR, 20 min): 291.4
- SIGNAL (alkaline phosphatase [3]; polymer TBQ-FLUOR, 20 min): 1445675.6
- S/N (alkaline phosphatase [3]; polymer TBQ-FLUOR, time 0): 1.0
- S/N (alkaline phosphatase [3]; polymer TBQ, 5 min): 191.2
- SIGNAL (alkaline phosphatase [3]; polymer TBQ, 5 min): 94429.4
- S/N (alkaline phosphatase [3]; polymer TBQ, 20 min): 433.9
- SIGNAL (alkaline phosphatase [3]; polymer TBQ, 20 min): 214319.4
- S/N (alkaline phosphatase [3]; polymer TBQ, time 0): 1.0
- SIGNAL (alkaline phosphatase [3]; polymer TBQ, time 0 (background, before enzyme)): 493.9
- S/N (alkaline phosphatase [3]; polymer TEQ, 5 min): 115.3
- SIGNAL (alkaline phosphatase [3]; polymer TEQ, 5 min): 25095.8
- S/N (alkaline phosphatase [3]; polymer TEQ, 20 min): 229.7
- SIGNAL (alkaline phosphatase [3]; polymer TEQ, 20 min): 50020.0
- S/N (alkaline phosphatase [3]; polymer TEQ, time 0): 1.0
- SIGNAL (alkaline phosphatase [3]; polymer TEQ, time 0 (background, before enzyme)): 217.8
- S/N (alkaline phosphatase [3]; polymer TMQ, 5 min): 65.8
- SIGNAL (alkaline phosphatase [3]; polymer TMQ, 5 min): 10525.8
- S/N (alkaline phosphatase [3]; polymer TMQ, 20 min): 141.1
- SIGNAL (alkaline phosphatase [3]; polymer TMQ, 20 min): 22558.3
- S/N (alkaline phosphatase [3]; polymer TMQ, time 0): 1.0
- SIGNAL (alkaline phosphatase [3]; polymer TMQ, time 0 (background, before enzyme)): 159.9
